Measurements from paper PMC8583042, “New Hybrid Compounds Combining Fragments of Usnic Acid and Thioether Are Inhibitors of Human Enzymes TDP1, TDP2 and PARP1” (International Journal of Molecular Sciences, 2021).

Experiments:
HeLa cells = assay: Cytotoxicity of the combination of 10a and topotecan on HeLa cells; assay type: cell-based, human
Text: TDP1 is able to cleave the TOP1–DNA complex, thus preventing the action of Tpc and decreasing the efficiency of this clinically used drug. The inhibition of TDP1 activity can increase the efficiency of Tpc. Next, we checked the cytotoxic effect of the combination of Tpc and examined the TDP1 inhibitors compared to Tpc alone on HeLa cells and HEK293 cells.
We observed the suppressed cell growth in the joint presence of the TDP1 inhibitor and Tpc on HeLa cells compared to Tpc alone (Figure 5). We observed the synergistic effect both when we titrated 10a with addition of fixed Tpc (1 μM or 2 μM) and vice versa when we titrated Tpc with addition of fixed 10a (5 μM). […] The CC50 value of Tpc decreased from 2 μM (only Tpc) to 0.7 μM (Tpc with 5 μM 10a).
Cytotoxicity of the compounds was examined against human cell lines HEK293A (human embryonic kidney)—WT, TDP1 deficient (Tdp1-/-), PARP1 deficient (PARP1-/-), and HeLa (cervical cancer) using an EZ4U colorimetric test (Biomedica, Vienna, Austria). The HEK293A cell line was obtained from Thermo Fisher Scientific (Waltham, MA, USA), and the HeLa cell line was obtained from the Russian Cell Culture Collection (RCCC) Institute of Cytology RAS, St. Petersburg, Russia. The cells were grown in DMEM/F12 medium (Gibco, Thermo Fisher Scientific, Waltham, MA, USA), with 1x GlutaMAX (Gibco, Thermo Fisher Scientific, Waltham, MA, USA), 50 IU/mL penicillin, 50 μg/mL streptomycin (MP Biomedicals), and in the presence of 10% fetal bovine serum (Biolot, Saint-Petersburg, Russia) in a 5% CO2 atmosphere. Cells were grown in the presence of 1% DMSO in the control wells. After the formation of a 30–50% monolayer, the tested compounds were added to the medium, and the cell culture was monitored for 3 days. The values were normalized to their own control in each case. At least three independent experiments were carried out. […] The compound concentration that caused 50% cell growth inhibition was determined using OriginPro 8.6.0 software (OriginLab, Northampton, MA, USA). […]

[1] = Colorimetric cytotoxicity test, HEK293FT; assay type: cell-based; conditions: human, HEK293FT cells, intrinsic cytotoxicity
Text: (§1) The low intrinsic cytotoxicity of the additional drug component in the clinically used anticancer cocktails with traditional drugs is very important for treatment. This approach in chemotherapy can reduce the potential resulting toxic load on the body in the case of a combined action of these inhibitors on the activity of several targets. […] The effects of the tested compounds on cell survival are shown on Figure 4 and the CC50 values for three cell lines are shown in Table 1. The intrinsic cytotoxicity of a number of the studied compounds is quite high, namely, they have close IC50 values against the TDP1 and CC50 values on one or several studied cell lines. Most of the compounds generally were more toxic for the HEK293FT and HeLa cell lines than for the HEK293A cell line (Table 1 and Figure 4). The cytotoxicity of the three leader compounds, 7g, 10a, and 7h, was quite high. […] Compound 10b was one of the least toxic among the ten tested compounds.
(§2) Cytotoxicity of the compounds was examined against human cell lines HEK293A (human embryonic kidney)—WT, TDP1 deficient (Tdp1-/-), PARP1 deficient (PARP1-/-), and HeLa (cervical cancer) using an EZ4U colorimetric test (Biomedica, Vienna, Austria). The HEK293A cell line was obtained from Thermo Fisher Scientific (Waltham, MA, USA), and the HeLa cell line was obtained from the Russian Cell Culture Collection (RCCC) Institute of Cytology RAS, St. Petersburg, Russia. The cells were grown in DMEM/F12 medium (Gibco, Thermo Fisher Scientific, Waltham, MA, USA), with 1x GlutaMAX (Gibco, Thermo Fisher Scientific, Waltham, MA, USA), 50 IU/mL penicillin, 50 μg/mL streptomycin (MP Biomedicals), and in the presence of 10% fetal bovine serum (Biolot, Saint-Petersburg, Russia) in a 5% CO2 atmosphere. Cells were grown in the presence of 1% DMSO in the control wells. After the formation of a 30–50% monolayer, the tested compounds were added to the medium, and the cell culture was monitored for 3 days. The values were normalized to their own control in each case. At least three independent experiments were carried out. The 50% cytotoxic concentration (CC50) was defined as the compound concentration that reduced the cell viability by 50% when compared to the untreated controls. The compound concentration that caused 50% cell growth inhibition was determined using OriginPro 8.6.0 software (OriginLab, Northampton, MA, USA). The measurements were carried out in three independent experiments.

[2] = Colorimetric cytotoxicity test, HEK293A Tdp1-/-; assay type: cell-based; conditions: human, HEK293A Tdp1-/- cells; TDP1-/- cell line, intrinsic cytotoxicity (Figure 6)
Text: (§3) In our previous works, we checked the cytotoxic effect of Tpc and the TDP1 inhibitors—monoterpene 3-carene-derived compounds [48, 49] and UA combined with monoterpenoids, measured separately and jointly with Tpc—using a panel of HEK293FT and HEK293A Tdp1 knockout isogenic clones. […] The data on the HEK293FT mutants were of low reproducibility, which is why we decided to change the basic cell line to HEK293A [49]. In this work, we created new PARP1-/- HEK293A cells using the CRISPR–Cas9 approach (Figure S27). […] We checked the intrinsic cytotoxicity of the leader compound (10a) on the HEK293 wild type and TDP1-/- and PARP1-/- cell lines using a colorimetric test (Figure 6). […] There was no difference between the WT and mutant cells.
(§4) Cytotoxicity of the compounds was examined against human cell lines HEK293A (human embryonic kidney)—WT, TDP1 deficient (Tdp1-/-), PARP1 deficient (PARP1-/-), and HeLa (cervical cancer) using an EZ4U colorimetric test (Biomedica, Vienna, Austria). […] After the formation of a 30–50% monolayer, the tested compounds were added to the medium, and the cell culture was monitored for 3 days. […] The compound concentration that caused 50% cell growth inhibition was determined using OriginPro 8.6.0 software (OriginLab, Northampton, MA, USA). […]

[3] = EZ4U colorimetric cytotoxicity test, HEK293A; assay type: cell-based; conditions: human
Text: as §1, §2

[4] = Colorimetric cytotoxicity test, HEK293A PARP1-/-; assay type: cell-based; conditions: human, PARP1-/- HEK293A cells; PARP1-/- cell line, intrinsic cytotoxicity (Figure 6); read-out: CC50
Text: as §3, §4

## CC(=O)C1=C(O)C=C2Oc3c(C(=O)C[S+]([O-])c4nc5ccccc5s4)c(O)c(C)c(O)c3[C@@]2(C)C1=O (stereo partly drawn) [10a, (2R)-4-acetyl-10-[2-(1,3-benzothiazole-2-sulfinyl)acetyl]-5,11,13-trihydroxy-2,12-dimethyl-8-oxatricyclo[7.4.0.0^2,7]trideca-1(13),4,6,9,11-pentaen-3-one]
HeLa cells; HeLa cells
  Synergy with Tpc (in words): promising synergy
HeLa cells; Homo sapiens, HeLa, 10a titrated with fixed 2 μM Tpc, read-out: CC50 of 10a with Tpc
  CC50: 3 µM
[1]
  CC50 at 3 days: 15 ± 2 µM
[2]
  CC50 at 3 days: 15 to 20 µM
[3]; HEK293A cells, intrinsic cytotoxicity, 3 days, read-out: HEK293A CC50
  CC50 at 3 days: 20 ± 2 µM
[3]; wild-type HEK293A cells, HEK293 wild type, intrinsic cytotoxicity (Figure 6), read-out: CC50
  CC50 at 3 days: 15 to 20 µM
[4]
  CC50 at 3 days: 15 to 20 µM
